Values of other authors, collected in PMC11674118, “New High-Affinity Peptide Ligands for Kv1.2 Channel: Selective Blockers and Fluorescent Probes” (Cells, 2024).
Where a SMILES comes first, the peptide text is derived from it. Bridges are numbered along the chain shown (N, C = ends).

Key:
[1] = molecular target: Kv1.1 channel (K-Kv1.1); conditions: similar analytical system, read-out: Kap, Kv1.1; cited from earlier work
Excerpt: Table 2 Sequences of Ce1, Ce4, HgTx1, and MgTx peptides and dissociation constants (Kap, nM) of their complexes with Kv1.2, Kv1.1, and Kv1.3 channels. | column: Kap, nM

[2] = test system: Kv1.2 channels; conditions: mammalian cells with depolarized membranes; read-out: 50% inhibition of the Rb+ flux through Kv1.2; cited from earlier work
Excerpt: (§1) Kap of MgTx in our experiments is consistent with the last value.

[3] = test system: human Kv1.2 channels; conditions: patch-clamp, mammalian cells; read-out: 50% decrease of current, human Kv1.2; cited from earlier work
Excerpt: as §1

CC[C@H](C)[C@H](NC(=O)[C@@H](N)[C@@H](C)O)C(=O)N[C@H](C(=O)N[C@@H](CC(N)=O)C(=O)N[C@H](C(=O)N[C@@H](CCCCN)C(=O)N[C@H]1CSSC[C@@H]2NC(=O)[C@H](CCCCN)NC(=O)[C@H](C)NC(=O)CNC(=O)[C@H](C)NC(=O)[C@H](CO)NC(=O)[C@H](CCC(N)=O)NC(=O)CNC(=O)[C@H](Cc3ccccc3)NC(=O)[C@H](CCC(N)=O)NC(=O)[C@H](C)NC(=O)[C@H](CCCCN)NC(=O)[C@@H]3CSSC[C@@H](C(=O)N[C@@H](Cc4ccc(O)cc4)C(=O)N4CCC[C@H]4C(=O)N[C@@H](Cc4c[nH]cn4)C(=O)O)NC(=O)[C@H](CCCCN)NC(=O)[C@H](CSSC[C@H](NC(=O)[C@H](CCC(N)=O)NC(=O)[C@H](CCCCN)NC(=O)[C@@H]4CCCN4C(=O)[C@H](CO)NC(=O)[C@H]([C@@H](C)O)NC1=O)C(=O)N[C@@H](CC(C)C)C(=O)N1CCC[C@H]1C(=O)N1CCC[C@H]1C(=O)N3)NC(=O)[C@H](CCCCN)NC(=O)CNC(=O)[C@H](CC(N)=O)NC(=O)[C@H](CCSC)NC2=O)C(C)C)[C@@H](C)CC [MgTx, margatoxin] (H-TIINVKCTSPKQCLPPCKAQFGQSAGAKCMNGKCKCYPH-OH; disulfide 7-29, 13-34, 17-36 (inferred); N-terminus and C-terminus assumed)
Kd [1]: 0.3 ± 0.2 nM
IC50 [2]: 0.675 nM
IC50 [3]: 0.006 nM
